Laboratory results reported in patent US20240408096A1, “DOSING REGIMENS FOR ORAL ALK2 KINASE INHIBITORS” (BioCryst Pharmaceuticals, Inc., priority 2020, published 2024).
“Also recorded” adds a separate entry of the source.

Key:
[1] = Phase 1 Part 1 (SAD) plasma PK incl. food effect; type: in vivo, human; conditions: for AUC0-24, geometric least-squares mean / AUC0-inf, geometric least-squares mean / AUC0-last, geometric least-squares mean / Cmax, geometric least-squares mean: 15 mg single dose; for AUC0-24 / AUC0-inf / AUC0-last / Cmax / Tmax / t1/2: Part 1 SAD; for AUC0-24 / AUC0-inf / AUC0-last / Cmax: geometric mean (CV%); for Tmax / t1/2: median
Method: Four sequential SAD cohorts were dosed.
Escalation to the next higher dose level in Part 1 occurred only after satisfactory review of clinical safety and pharmacokinetic data. […] Subjects received the same study drug and dose (Compound A or placebo) in both dosing periods.
For each cohort of Part 1, the daily dose of study drug was administered as a single dose (1 time daily or QD). In Part 1 of the study, following a screening period to determine eligibility, subjects in each cohort entered the Phase 1 clinical research unit (CRU) on the afternoon of Day −1. Study eligibility was re-confirmed upon admission to the CRU, and subjects remained in the CRU overnight prior to dosing on Day 1. Following Day 1, subjects remained in the CRU for an additional 72 hours post-dose (i.e., discharge on Day 4) to enable collection of plasma and urine for PK samples and other study assessments. Subjects were discharged from the CRU following plasma PK sample collection on Day 4 and returned on Day 16 (+2 days) for a final follow-up visit.
Serial venous blood samples were withdrawn via an indwelling cannula or by venipuncture according to the schedule in Tables 4 and 5 for Parts 1 and 2, respectively. Samples were collected into 4 mL lithium heparin tubes. The acceptable deviations from the nominal blood sampling times in Part 1 and Part 2 are as follows: the pre-dose blood sample will be taken ≤1 hour before dosing; 0 to 1 hour post-dose samples will be taken within +2 minutes of the nominal post-dose sampling time; >1 to 12 hours post-dose samples will be taken within +10 minutes of the nominal post-dose sampling time; and >12 hours post-dose samples will be taken within +30 minutes of the nominal post-dose sampling time if subjects are resident in the clinic. […]
In all derivations of PK parameters, 0 will be substituted for concentrations below the quantification limit (BQL) of the assay. Samples that are BQL but are between 2 samples with detectable concentrations will be excluded from PK analysis.
Dose proportionality was evaluated over all fasted doses within a study part based upon AUC0-inf (Part 1), AUCtau (Part 2), AUC0-t, and Cmax using the power model. The analysis was performed for Day 1 (Parts 1 and 2) and Day 7 (Part 2).
Dose proportionality for PK parameters was assessed by restricted maximum likelihood using SAS PROC MIXED (SAS STAT software, Cary N.C.). The mean slope was estimated from the power model and the corresponding 90% confidence interval (CI) calculated. Dose proportionality was also examined using an analysis of variance (ANOVA) method, where PK parameters for each dose were compared with a reference dose on a pair-wise basis. The ratio of geometric least squares (GLS) means and the corresponding 90% CI was estimated for each PK parameter of interest.
Mixed-effects models were constructed with treatment fitted as a fixed effect and subject fitted as a random effect to provide point estimates for the ratios of PK parameters under fed relative to fasted conditions and their associated 90% CI.

[2] = Phase 1 Parts 1 and 2 Holter ECG pharmacodynamics / exposure-response; type: in vivo, human
Method: ECGs were obtained according to the schedule in Tables 4 and 5 for Parts 1 and 2, respectively. A standard bedside 12-lead ECG machine or telemetry system that calculates HR and measures the PR, QRS, QT, RR, and QTc (QTcF) intervals was used. The acceptable deviations from the nominal ECG measurement time points were: re-dose: ≤2 hours before dosing; post dose: ±15 minutes from the nominal post-dose time point; and discharge: ±1 hour from the nominal time point.
Where possible, Holter-obtained and adjudicated ECGs were used to determine the change from baseline in mean differences in QTcF between each active treatment chosen to be analyzed relative to that obtained on subjects receiving placebo within a study part (for Part 2, within each cohort). At each time point Holter ECGs are analyzed, an individual subject's change from baseline will be calculated as:
Δik=(QTcF for subject I at time point k−Baseline QTcF), where QTcF measurements will be the average of triplicate ECGs at each time point. Baseline QTcF is the average of all pre-dose values.

[3] = Part 1 cohort 4, 15 mg single dose
[4] = Parts 1 and 2, model included placebo

AUC0-24, geometric least-squares mean ([1]; fasted): 1975,63 ng · h/mL
AUC0-inf, geometric least-squares mean ([1]; fasted): 2075.34 ng·h/mL
AUC0-last, geometric least-squares mean ([1]; fasted): 2019.55 ng·h/mL
Cmax, geometric least-squares mean ([1]; fasted): 272.80 ng/mL
AUC0-24, geometric least-squares mean ([1]; fed): 1742.05 ng·h/mL
AUC0-inf, geometric least-squares mean ([1]; fed): 2087.05 ng·h/mL
AUC0-last, geometric least-squares mean ([1]; fed): 2015.24 ng·h/mL
Cmax, geometric least-squares mean ([1]; fed): 199.50 ng/mL
median time to maximum concentration (Tmax) ([1]; Part 1, all fasted cohorts): approximately 2 hours
AUC0-24 ([1]; 5 mg single oral dose, fasted): 686.9 (30.7) ng · h/mL
AUC0-inf ([1]; 5 mg single oral dose, fasted): 755.7 (29.9) ng · h/mL
AUC0-last ([1]; 5 mg single oral dose, fasted): 717.0 (31.3) ng · h/mL
Cmax ([1]; 5 mg single oral dose, fasted): 94.24 (45.2) ng/mL
Tmax ([1]; 5 mg single oral dose, fasted): 2.011 h
t1/2 ([1]; 5 mg single oral dose, fasted): 6.833 h
AUC0-24 ([1]; 10 mg single oral dose, fasted): 1545 (18.9) ng · h/mL
AUC0-inf ([1]; 10 mg single oral dose, fasted): 1662 (17.3) ng · h/mL
AUC0-last ([1]; 10 mg single oral dose, fasted): 1579 (18.8) ng · h/mL
Cmax ([1]; 10 mg single oral dose, fasted): 234.3 (26.1) ng/mL
Tmax ([1]; 10 mg single oral dose, fasted): 2.013 h
t1/2 ([1]; 10 mg single oral dose, fasted): 5.753 h
AUC0-24 ([1]; 15 mg single oral dose, fasted): 1976 (16.6) ng · h/mL
AUC0-inf ([1]; 15 mg single oral dose, fasted): 2214 (24.3) ng · h/mL
AUC0-last ([1]; 15 mg single oral dose, fasted): 2178 (24.8) ng · h/mL
Cmax ([1]; 15 mg single oral dose, fasted): 272.8 (42.5) ng/mL
Tmax ([1]; 15 mg single oral dose, fasted): 2.009 h
t1/2 ([1]; 15 mg single oral dose, fasted): 7.639 h
AUC0-24 ([1]; 15 mg single oral dose, fed): 1742 (17.6) ng · h/mL
AUC0-inf ([1]; 15 mg single oral dose, fed): 1978 (21.4) ng · h/mL
AUC0-last ([1]; 15 mg single oral dose, fed): 1898 (24.3) ng · h/mL
Cmax ([1]; 15 mg single oral dose, fed): 199.5 (41.2) ng/mL
Tmax ([1]; 15 mg single oral dose, fed): 4.023 h
t1/2 ([1]; 15 mg single oral dose, fed): 6.688 h
AUC0-24 ([1]; 25 mg single oral dose, fasted): 3188 (14.2) ng · h/mL
AUC0-inf ([1]; 25 mg single oral dose, fasted): 3517 (17.0) ng · h/mL
AUC0-last ([1]; 25 mg single oral dose, fasted): 3475 (17.8) ng · h/mL
Cmax ([1]; 25 mg single oral dose, fasted): 474.1 (37.1) ng/mL
Tmax ([1]; 25 mg single oral dose, fasted): 2.071 h
t1/2 ([1]; 25 mg single oral dose, fasted): 7.502 h
GLSM AUC0-last and GLSM AUC0-inf fasted vs. fed [1, 3]: approximately equivalent
Tmax, median of paired differences (95% CI) fed vs. fasted [1, 3]: 2.00 (0.99, 10.00)
decrease of GLSM AUC0-24 after high-fat meal vs fasted [1, 3]: 12%
decrease of GLSM Cmax after high-fat meal vs fasted [1, 3]: 27%
Compound: COc1cc(-n2cnc(Nc3nc(N4CCC[C@H]4C(N)=O)nc4sccc34)c2)cc(OC)c1OC.O=C(O)CC(O)(CC(=O)O)C(=O)O [Compound A]
detectability in plasma ([1]; Part 1, all cohorts except cohort 1 (5 mg dose)): remained detectable over the entire 72-hour data collection period
dose proportionality of plasma exposure ([1]; Part 1, single oral doses 5 to 25 mg, healthy subjects): exhibits dose proportionality; also recorded: approximately linear and dose proportional
dose proportionality of single dose Cmax ([1]; Part 1 single ascending oral dose cohorts (FIG. 2)): approximately linear and dose-proportional
dose proportionality of single dose AUC0-24 ([1]; Part 1 single ascending oral dose cohorts (FIG. 3)): approximately linear and dose-proportional
slope of ΔQTcF-concentration model ([2]; Parts 1 and 2): 0.0002
ΔQTcF-concentration model fit line and confidence boundaries ([2]; Parts 1 and 2): below 10 msec
slope of ΔHR-concentration model [2, 4]: 0.0004
slope of ΔPR-concentration model [2, 4]: −0.0033
slope of ΔQRS-concentration model [2, 4]: 0.0004
model predicted HR changes ([2]; at all concentrations): < 1 bpm
model predicted PR changes ([2]; at all concentrations): less than 2 msec
effect on the ECG (12-lead Holter monitoring) ([2]; single doses up to 25 mg and multiple daily doses over 7 days up to 20 mg): absence of a clinically significant effect
